# Results from PubChem BioAssay AID1963850 (Molecular Pharmacology Branch, DTP, NCI, 2024).
# Several values for one entry are separate records, joined by “and”; a condition that tells them apart may be missing. Equal values may be shown once.
# Tested on: 192522-019-R-J2-PDC complex tumor spheroid viability
# Assay: Anticancer human tumor 192522-019-R-J2-PDC patient-derived colon adenocarcinoma cell line growth inhibition [POLQ]
# Settings: for viability, T/C: stronger effect = lower value
# Description: Multicellular complex tumor spheroid response to Polymerase (POL) inhibitors (novobiocin, ART-558, RP6685) in combination with a variety of drugs and investigational agents in selected tumor cell lines
# The POL inhibitors (novobiocin, ART-558, and RP6685) were evaluated both individually and in combination with standard of care and investigational anticancer small molecules within a complex spheroid model of solid tumors. . Complex spheroids include a stromal component modeled by human endothelial cells (HUVEC) and fibroblasts modeled by human mesenchymal stem cells (MSCs). The concentration ranges selected for each drug and investigational agent were based upon clinically achievable concentrations if the clinical Cmax of the agent was known.
# Compounds. The drugs and investigational agents: novobiocin (NSC847541), ART-558 (NSC835418), RP-6685 (NSC848927), peposertib (NSC802822), ceralasertib (NSC780249), elimusertib (NSC800525), camonsertib (NSC841442), AZD-1390 (NSC803789), olaparib (NSC753686), talazoparib (NSC767125), rucaparib (NSC756644), sotorasib (NSC818433), MRTX-1133 (NSC836407), SN-38 (NSC673596), topotecan (NSC609699), epotoside (NSC141540), doxorubicin (NSC123127), gemcitabine (NSC613327), 5-fluorouracil (NSC19893), paclitaxel (NSC125973), vemurafenib (NSC761431), MSA-2 (NSC828583), SN-011 (NSC837082), adavosertib (NSC754352), prexasertib (NSC758257), carboplatin (NSC241240) and oxaliplatin (NSC266046), were obtained from the National Cancer Institute (NCI) Developmental Therapeutics Program Chemical Repository (21). The FDA-approved anticancer drug set is available from the Developmental Therapeutics Program at https://dtp.cancer.gov/organization/dscb/obtaining/. […] The stock solutions were prepared in dimethyl sulfoxide (DMSO, Sigma-Aldrich, St. Louis, MO, cat. D2650), except for the platinum compounds which were prepared in saline (Quality Biological, Gaithersburg, MD, cat. 114-055-101), at 800-fold the tested concentration and stored at -70 degrees C prior to their use. All drugs and investigational agents were tested over a range starting from a high concentration at or near the clinical Cmax and decreasing in half-log increments. If the clinical Cmax for an agent had not been determined, the highest concentration tested was 10 microM, except for SN-38, which was tested at a high concentration of 1 microM.
# Cell Culture. All cells were maintained in an incubator at 37 degrees C and 5% CO2 with 95% humidity. The PDC lines were cultured according to standard operating procedures established by the NCI PDMR (https://pdmr.cancer.gov). Table 3 of the manuscript, lists the cell lines along with the number of the three cell types plated to form the mct-spheroids and media for tumor cell growth. After thawing, all PDC lines, except 997537-175-T-J1-PDC and 415267-285-R-J2-PDC, were cultured in Matrigel-coated flasks prepared with a working solution of 1X Ham's F-12 nutrient mix, without supplementation (Thermo Fisher Scientific, cat. 11765054), 100 U/mL penicillin-streptomycin (Thermo Fisher Scientific, cat. 15140122), and 2.5% Matrigel (Corning Inc., Corning, NY, cat. 354248) for the first three passages. The two PDC lines 997537-175-T-J1-PDC and 415267-285-R-J2-PDC were cultured on uncoated flasks. The 857933-349-R-J2-PDC line was cultured in 6C/Colon 1B media containing advanced DMEM/F-12 (Thermo Fisher Scientific, cat. 12634028), 10 mM HEPES (Thermo Fisher Scientific, cat. 15630080), 1X GlutaMAX supplement (Thermo Fisher Scientific, cat. 35050061), 0.1 mg/mL primocin (InvivoGen, San Diego, CA, cat. ant-pm-2), 10% defined fetal bovine serum, heat inactivated (HyClone Laboratories Inc., Logan, UT, cat. SH30070.03HI), 50% L-WRN conditioned media (ATCC, cat. CRL-3276), 1.25 mM N-Acetyl-L-cysteine (Sigma-Aldrich, cat. A9165), 10 mM nicotinamide (Sigma-Aldrich, cat. N0636), 1X B-27 supplement (Thermo Fisher Scientific, cat. 17504044), 1X N-2 supplement (Thermo Fisher Scientific, cat. […]
# [1] = curve of first compound, second compound 0.0316 µM
# [2] = curve of first compound, second compound 0.1 µM
# [3] = curve of first compound, second compound 0.316 µM
# [4] = curve of first compound, second compound 1 µM
# [5] = curve of first compound, second compound 3.16 µM
# [6] = curve of first compound, second compound 10 µM
# [7] = second compound 0.0316 µM, first compound 0.00316 µM
# [8] = second compound 0.0316 µM, first compound 0.01 µM
# [9] = second compound 0.0316 µM, first compound 0.0316 µM
# [10] = second compound 0.0316 µM, first compound 0.1 µM
# [11] = second compound 0.1 µM, first compound 0.00316 µM
# [12] = second compound 0.1 µM, first compound 0.01 µM
# [13] = second compound 0.1 µM, first compound 0.0316 µM
# [14] = second compound 0.1 µM, first compound 0.1 µM
# [15] = second compound 0.316 µM, first compound 0.00316 µM
# [16] = second compound 0.316 µM, first compound 0.01 µM
# [17] = second compound 0.316 µM, first compound 0.0316 µM
# [18] = second compound 0.316 µM, first compound 0.1 µM
# [19] = second compound 1 µM, first compound 0.00316 µM
# [20] = second compound 1 µM, first compound 0.01 µM
# [21] = second compound 1 µM, first compound 0.0316 µM
# [22] = second compound 1 µM, first compound 0.1 µM
# [23] = second compound 3.16 µM, first compound 0.00316 µM
# [24] = second compound 3.16 µM, first compound 0.01 µM
# [25] = second compound 3.16 µM, first compound 0.0316 µM
# [26] = second compound 3.16 µM, first compound 0.1 µM
# [27] = second compound 10 µM, first compound 0.00316 µM
# [28] = second compound 10 µM, first compound 0.01 µM
# [29] = second compound 10 µM, first compound 0.0316 µM
# [30] = second compound 10 µM, first compound 0.1 µM
# 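Note: spheroids exposed to drugs for seven days before reading.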
# 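Throughout, for viability, T/C: 100% = DMSO vehicle control viability in luminescence.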
smiles,measurement,setting,value
CC[C@@]1(O)C(=O)OCc2c1cc1n(c2=O)Cc2cc3c(CN(C)C)c(O)ccc3nc2-1 + COC1C(OC(N)=O)C(O)C(Oc2ccc3c(O)c(NC(=O)c4ccc(O)c(CC=C(C)C)c4)c(=O)oc3c2C)OC1(C)C,IC50,[1],> 100 nM
same,IC50,[2],> 100 nM
same,IC50,[3],> 100 nM
same,IC50,[4],> 100 nM
same,IC50,[5],> 100 nM
same,IC50,[6],> 100 nM
same,"viability, T/C","second compound 0.0316 µM, first compound 0.000316 µM",113%
same,"viability, T/C","second compound 0.0316 µM, first compound 0.001 µM",95.6%
same,"viability, T/C",[7],101%
same,"viability, T/C",[8],96.6%
same,"viability, T/C",[9],87.5%
same,"viability, T/C",[10],52.1%
same,"viability, T/C","second compound 0.1 µM, first compound 0.000316 µM",98.4%
same,"viability, T/C","second compound 0.1 µM, first compound 0.001 µM",103%
same,"viability, T/C",[11],102%
same,"viability, T/C",[12],96%
same,"viability, T/C",[13],90.4%
same,"viability, T/C",[14],56.1%
same,"viability, T/C","second compound 0.316 µM, first compound 0.000316 µM",105%
same,"viability, T/C","second compound 0.316 µM, first compound 0.001 µM",106%
same,"viability, T/C",[15],102%
same,"viability, T/C",[16],99.6%
same,"viability, T/C",[17],87.6%
same,"viability, T/C",[18],58.1%
same,"viability, T/C","second compound 1 µM, first compound 0.000316 µM",103%
same,"viability, T/C","second compound 1 µM, first compound 0.001 µM",99.6%
same,"viability, T/C",[19],105%
same,"viability, T/C",[20],102%
same,"viability, T/C",[21],84.8%
same,"viability, T/C",[22],53.9%
same,"viability, T/C","second compound 3.16 µM, first compound 0.000316 µM",102%
same,"viability, T/C","second compound 3.16 µM, first compound 0.001 µM",99.1%
same,"viability, T/C",[23],99.8%
same,"viability, T/C",[24],109%
same,"viability, T/C",[25],92.3%
same,"viability, T/C",[26],55.5%
same,"viability, T/C","second compound 10 µM, first compound 0.000316 µM",108%
same,"viability, T/C","second compound 10 µM, first compound 0.001 µM",103%
same,"viability, T/C",[27],98.5%
same,"viability, T/C",[28],103%
same,"viability, T/C",[29],84.8%
same,"viability, T/C",[30],57.6%
COc1cccc2c1C(=O)c1c(O)c3c(c(O)c1C2=O)CC(O)(C(=O)CO)CC3OC1CC(N)C(O)C(C)O1 (stereo unspecified),"viability, T/C",compound 0.0316 µM,103% and 101% and 100%
same,"viability, T/C",compound 0.1 µM,82.1% and 80.8% and 80.6%
same,"viability, T/C",compound 0.316 µM,72% and 89.1% and 66.9%
same,"viability, T/C",compound 1 µM,89.1% and 74.3% and 83.1%
same,"viability, T/C",compound 3.16 µM,69.1% and 72.3% and 65.9%
same,"viability, T/C",compound 10 µM,59.9% and 62.4% and 48.1%
same,IC50,curve of compound,> 10000 nM
COc1cccc(OCCCN)c1-c1cc(Nc2cnc(C#N)cn2)n[nH]1 + Nc1ccc(C#CCN(C(=O)Cc2ncc(C(F)(F)F)cc2C(F)(F)F)c2ccc(F)cc2)nn1,IC50,[1],26.9 nM
same,IC50,[2],25.7 nM
same,IC50,[3],27.1 nM
same,IC50,[4],28.1 nM
same,IC50,[5],29.1 nM
same,IC50,[6],26.9 nM
same,"viability, T/C",[7],102%
same,"viability, T/C",[8],86%
same,"viability, T/C",[9],44.1%
same,"viability, T/C",[10],37.4%
same,"viability, T/C","second compound 0.0316 µM, first compound 0.316 µM",40.7%
same,"viability, T/C","second compound 0.0316 µM, first compound 1 µM",35.3%
same,"viability, T/C",[11],102%
same,"viability, T/C",[12],78.4%
same,"viability, T/C",[13],43.5%
same,"viability, T/C",[14],39.4%
same,"viability, T/C","second compound 0.1 µM, first compound 0.316 µM",35%
same,"viability, T/C","second compound 0.1 µM, first compound 1 µM",36.3%
same,"viability, T/C",[15],102%
same,"viability, T/C",[16],81.4%
same,"viability, T/C",[17],45.2%
same,"viability, T/C",[18],38.3%
same,"viability, T/C","second compound 0.316 µM, first compound 0.316 µM",37.5%
same,"viability, T/C","second compound 0.316 µM, first compound 1 µM",39.2%
same,"viability, T/C",[19],96.8%
same,"viability, T/C",[20],87.5%
same,"viability, T/C",[21],45.7%
same,"viability, T/C",[22],40.6%
same,"viability, T/C","second compound 1 µM, first compound 0.316 µM",40.1%
same,"viability, T/C","second compound 1 µM, first compound 1 µM",40.5%
same,"viability, T/C",[23],101%
same,"viability, T/C",[24],85.2%
same,"viability, T/C",[25],47.2%
same,"viability, T/C",[26],44.6%
same,"viability, T/C","second compound 3.16 µM, first compound 0.316 µM",45.3%
same,"viability, T/C","second compound 3.16 µM, first compound 1 µM",40.9%
same,"viability, T/C",[27],99.5%
same,"viability, T/C",[28],66.7%
same,"viability, T/C",[29],46.7%
same,"viability, T/C",[30],43.1%
same,"viability, T/C","second compound 10 µM, first compound 0.316 µM",52.2%
same,"viability, T/C","second compound 10 µM, first compound 1 µM",46.8%
